From patent US20230000870A1, “METHODS OF TREATING CANCER IN BIOMARKER-IDENTIFIED PATIENTS WITH INHIBITORS OF CYCLIN-DEPENDENT KINASE 7 (CDK7)” (Syros Pharmaceuticals, Inc., priority 2019, published 2023)

Columns and labels:
[1] = molecular target: CDK2/Cyclin E1 complex (Homo sapiens, UniProt P24941); experiment: CDK2 kinase inhibition assay (Caliper/LabChip EZ Reader); assay type: biochemical; settings: CDK2/Cyclin E1 0.5 nM, ATP 2 mM, 35 min at 27° C.
Procedure, shortened: (§1)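 Incubation times were set for ~20% (±5%) peptide phosphorylation by uninhibited enzyme: CDK7 35 min, CDK2 35 min (0.5 nM complex, 2 μM 5-FAM-CDK7tide, 2 mM MgCl2), CDK12 3 hr (50 nM, 2 μM 5-FAM-CDK9tide, 2 mM MgCl2), CDK9 15 min (8 nM, 2 μM 5-FAM-CDK9tide, 10 mM MgCl2). Read-out on LabChip EZ Reader, 27° C.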

[2] = molecular target: CDK7/Cyclin H/MAT1 complex (Homo sapiens, UniProt P50613); experiment: CDK7 kinase inhibition assay (Caliper/LabChip EZ Reader); assay type: biochemical; settings: CDK7/Cyclin H/MAT1 6 nM, ATP 2 mM, 35 min at 27° C.
Sequence of CDK7/Cyclin H/MAT1 complex (P50613 whole entry): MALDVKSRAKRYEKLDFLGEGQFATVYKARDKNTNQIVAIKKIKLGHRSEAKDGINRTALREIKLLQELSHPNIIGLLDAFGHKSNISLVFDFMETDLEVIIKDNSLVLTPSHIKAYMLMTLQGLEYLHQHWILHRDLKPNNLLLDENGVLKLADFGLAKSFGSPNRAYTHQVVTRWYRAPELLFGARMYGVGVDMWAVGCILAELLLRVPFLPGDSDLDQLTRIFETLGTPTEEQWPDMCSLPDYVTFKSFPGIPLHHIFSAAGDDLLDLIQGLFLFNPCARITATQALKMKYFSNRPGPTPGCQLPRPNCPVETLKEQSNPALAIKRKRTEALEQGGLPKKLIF
Sequence of CDK7/Cyclin H/MAT1 complex (P51946 whole entry partner): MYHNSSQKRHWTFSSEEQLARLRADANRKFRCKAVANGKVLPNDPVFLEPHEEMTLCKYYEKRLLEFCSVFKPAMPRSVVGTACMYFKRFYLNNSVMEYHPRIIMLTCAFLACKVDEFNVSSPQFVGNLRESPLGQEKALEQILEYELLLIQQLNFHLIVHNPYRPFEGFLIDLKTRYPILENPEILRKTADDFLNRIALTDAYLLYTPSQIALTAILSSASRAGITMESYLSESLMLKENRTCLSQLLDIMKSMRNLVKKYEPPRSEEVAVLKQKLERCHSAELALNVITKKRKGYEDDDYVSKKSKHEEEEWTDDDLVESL
Sequence of CDK7/Cyclin H/MAT1 complex (P51948 whole entry partner): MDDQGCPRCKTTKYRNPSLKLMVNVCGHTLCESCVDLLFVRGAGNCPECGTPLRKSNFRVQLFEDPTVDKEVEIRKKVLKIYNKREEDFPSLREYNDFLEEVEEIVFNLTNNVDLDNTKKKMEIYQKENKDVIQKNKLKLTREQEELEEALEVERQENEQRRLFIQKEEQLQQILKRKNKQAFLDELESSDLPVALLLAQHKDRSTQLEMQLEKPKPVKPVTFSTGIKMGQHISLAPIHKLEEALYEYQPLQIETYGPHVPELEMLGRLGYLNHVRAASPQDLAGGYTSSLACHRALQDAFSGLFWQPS
Procedure, shortened: as §1

[3] = molecular target: CDK9/Cyclin T1 complex (Homo sapiens, UniProt P50750); experiment: CDK9 kinase inhibition assay (Caliper/LabChip EZ Reader); assay type: biochemical; settings: CDK9/Cyclin T1 8 nM, ATP 2 mM, 15 min at 27° C.
Sequence of CDK9/Cyclin T1 complex (P50750 whole entry): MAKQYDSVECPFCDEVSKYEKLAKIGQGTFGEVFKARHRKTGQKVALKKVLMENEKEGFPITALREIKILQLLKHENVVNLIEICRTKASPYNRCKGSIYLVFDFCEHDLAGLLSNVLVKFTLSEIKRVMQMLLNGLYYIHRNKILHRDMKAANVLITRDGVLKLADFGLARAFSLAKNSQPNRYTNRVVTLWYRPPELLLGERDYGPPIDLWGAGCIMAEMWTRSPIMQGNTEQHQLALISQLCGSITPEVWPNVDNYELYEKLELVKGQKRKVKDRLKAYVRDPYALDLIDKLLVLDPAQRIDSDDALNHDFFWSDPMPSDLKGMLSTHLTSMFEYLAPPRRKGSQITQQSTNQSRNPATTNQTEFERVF
Sequence of CDK9/Cyclin T1 complex (O60563 whole entry partner): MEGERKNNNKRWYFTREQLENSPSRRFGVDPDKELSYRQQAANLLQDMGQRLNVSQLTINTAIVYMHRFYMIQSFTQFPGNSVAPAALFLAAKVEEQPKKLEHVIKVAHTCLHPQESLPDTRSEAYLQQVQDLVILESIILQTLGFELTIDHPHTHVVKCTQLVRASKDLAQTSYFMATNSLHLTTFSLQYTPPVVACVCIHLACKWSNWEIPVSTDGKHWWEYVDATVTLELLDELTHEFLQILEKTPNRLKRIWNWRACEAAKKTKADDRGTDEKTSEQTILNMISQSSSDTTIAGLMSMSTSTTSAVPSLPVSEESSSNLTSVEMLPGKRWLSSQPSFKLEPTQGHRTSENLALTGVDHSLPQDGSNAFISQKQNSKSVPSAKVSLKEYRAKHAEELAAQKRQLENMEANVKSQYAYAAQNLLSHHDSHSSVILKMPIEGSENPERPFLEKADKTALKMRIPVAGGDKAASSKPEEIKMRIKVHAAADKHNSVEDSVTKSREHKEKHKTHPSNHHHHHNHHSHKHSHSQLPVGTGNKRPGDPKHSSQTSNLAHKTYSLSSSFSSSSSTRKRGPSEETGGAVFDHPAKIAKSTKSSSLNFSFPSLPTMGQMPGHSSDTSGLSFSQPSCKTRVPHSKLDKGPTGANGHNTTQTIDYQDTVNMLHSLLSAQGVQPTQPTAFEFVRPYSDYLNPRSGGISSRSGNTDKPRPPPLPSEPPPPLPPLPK
Procedure, shortened: as §1

[4] = molecular target: T1, CDK12 (aa686-1082)/Cyclin K complex (Homo sapiens, UniProt Q9NYV4); experiment: CDK12 kinase inhibition assay (Caliper/LabChip EZ Reader); assay type: biochemical; settings: CDK12 (aa686-1082)/Cyclin K 50 nM, ATP 2 mM, 3 hr at 27° C.
T1 construct: CDK12 (aa686-1082)/Cyclin K complex
T1 sequence (Q9NYV4 686-1082): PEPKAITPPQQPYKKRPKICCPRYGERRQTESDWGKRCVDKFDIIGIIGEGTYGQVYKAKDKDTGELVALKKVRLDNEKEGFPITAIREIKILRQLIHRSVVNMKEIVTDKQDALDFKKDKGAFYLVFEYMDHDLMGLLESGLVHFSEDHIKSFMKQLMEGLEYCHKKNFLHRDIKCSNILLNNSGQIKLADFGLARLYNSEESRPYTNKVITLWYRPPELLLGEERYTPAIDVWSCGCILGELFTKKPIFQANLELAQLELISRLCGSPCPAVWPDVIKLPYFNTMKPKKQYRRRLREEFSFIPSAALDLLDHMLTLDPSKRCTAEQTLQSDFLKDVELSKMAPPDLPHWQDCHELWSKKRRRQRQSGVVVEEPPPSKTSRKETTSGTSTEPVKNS
T1 sequence (O75909 whole entry partner, the tested form may be a part): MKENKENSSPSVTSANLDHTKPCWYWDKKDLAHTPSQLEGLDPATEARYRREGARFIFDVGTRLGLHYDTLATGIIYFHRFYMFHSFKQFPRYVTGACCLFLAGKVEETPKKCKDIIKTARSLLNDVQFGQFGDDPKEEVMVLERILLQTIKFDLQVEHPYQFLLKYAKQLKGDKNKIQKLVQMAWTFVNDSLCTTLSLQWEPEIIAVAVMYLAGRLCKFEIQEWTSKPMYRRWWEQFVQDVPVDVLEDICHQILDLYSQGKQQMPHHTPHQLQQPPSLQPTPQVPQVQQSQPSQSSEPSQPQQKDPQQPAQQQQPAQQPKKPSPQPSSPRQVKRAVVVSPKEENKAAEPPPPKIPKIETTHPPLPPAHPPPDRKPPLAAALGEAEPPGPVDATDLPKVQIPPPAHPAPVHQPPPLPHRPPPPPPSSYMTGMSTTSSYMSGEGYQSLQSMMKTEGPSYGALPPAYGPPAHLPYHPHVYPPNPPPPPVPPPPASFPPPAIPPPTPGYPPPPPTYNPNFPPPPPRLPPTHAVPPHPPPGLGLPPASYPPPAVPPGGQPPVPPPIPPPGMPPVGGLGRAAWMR
Procedure, shortened: as §1

[5] = system: HCC70 cells; experiment: Inhibition of proliferation of HCC70 cells (CyQUANT Direct, 72 hour); assay type: cell-based, human; settings: read-out: Inhibition of Proliferation of HCC70 Cells (calculated IC50)
Experimental: HCC70 cells: HCC70 cells are a cell line derived from human triple negative breast cancer. Representative compounds of the invention were tested at different concentrations (from 4 μM to […]; 0.5 log serial dilutions) for their ability to inhibit the proliferation of HCC70 cells. Known CDK inhibitors dinaciclib or N-((1S,3R)-3-((5-chloro-4-(1H-indol-3-yl) pyrimidin-2-yl)amino)cyclohexyl)-5-((E)-4-(dimethylamino)but-2-enamido)picolinamide and triptolide were used as positive controls. Cells were grown in ATCC-formulated RPMI-1640 Medium (ATCC 30-2001)+10% FBS. The cells were cultured at 37° C. in a humidified chamber in the presence of 5% CO2. Proliferation assays were conducted over a 72 hour time period. CyQUANT® Direct Cell Proliferation Assay (Life Technologies, Chicago, Ill. USA) was used to assess the anti-proliferative effects of the compounds following manufacturer's directions and utilizing the reagents supplied with the CyQUANT® Direct Cell kit.

Row | SMILES | IC50 [1] | IC50 [2] | IC50 [3] | IC50 [4] | IC50 [5]
1 | CS(=O)(=O)c1ccc2c(-c3nc(NC4CCCN(C5CC5)C4)ncc3C(F)(F)F)c[nH]c2c1 (stereo not shown) [Compound 381] | ≥ 5 µM | 0.02 to 0.2 µM | ≥ 5 µM | 0.2 to 5 µM | 1 to 5 µM
2 | Oc1ncccc1-c1ccc2c(-c3nc(NC4CCCNC4)ncc3C(F)(F)F)c[nH]c2c1 (stereo not shown) [Compound 310] | 0.2 to 5 µM | < 0.02 µM | ≥ 5 µM | 0.2 to 5 µM | 0.1 to 1 µM
3 | CCc1cnc(N[C@H]2CCCNC2)nc1-c1c[nH]c2c(F)c(C#N)ccc12 [Compound 360] | ≥ 5 µM | 0.02 to 0.2 µM | ≥ 5 µM | ≥ 5 µM | 1 to 5 µM
4 | N#Cc1ccc2c(-c3nc(NC4CCCNC4)ncc3OC(F)F)c[nH]c2c1 (stereo not shown) [Compound 301] | ≥ 5 µM | 0.02 to 0.2 µM | ≥ 5 µM | ≥ 5 µM | 1 to 5 µM
5 | FC(F)(F)c1cnc(NC2CCCNC2)nc1-c1c[nH]c2cc(-c3cnccn3)ccc12 (stereo not shown) [Compound 328] | 0.2 to 5 µM | < 0.02 µM | 0.2 to 5 µM | 0.2 to 5 µM | < 0.1 µM
6 | CC(C)S(=O)(=O)c1ccc2c(-c3nc(NC4CCCNC4)ncc3C(F)(F)F)c[nH]c2c1 (stereo not shown) [Compound 346] | 0.2 to 5 µM | 0.02 to 0.2 µM | 0.2 to 5 µM | 0.2 to 5 µM | 0.1 to 1 µM
7 | OCc1ncccc1-c1ccc2c(-c3nc(NC4CCCNC4)ncc3C(F)(F)F)c[nH]c2c1 (stereo not shown) [Compound 323] | 0.2 to 5 µM | < 0.02 µM | ≥ 5 µM | 0.2 to 5 µM | 0.1 to 1 µM
8 | CCN1CCCC(Nc2ncc(C(F)(F)F)c(-c3c[nH]c4cc(S(C)(=O)=O)ccc34)n2)C1 (stereo not shown) [Compound 298] | 0.2 to 5 µM | < 0.02 µM | ≥ 5 µM | 0.2 to 5 µM | 0.1 to 1 µM
9 | Cc1noc(C)c1-c1ccc2c(-c3nc(N[C@H]4CCCNC4)ncc3C(F)(F)F)c[nH]c2c1 [Compound 330] | 0.2 to 5 µM | < 0.02 µM | 0.2 to 5 µM | 0.2 to 5 µM | < 0.1 µM
10 | CC(C)(C)OC(=O)N1CCC[C@H](Nc2ncc(C(F)(F)F)c(-c3c[nH]c4cc(P(C)(C)=O)ccc34)n2)C1 [Compound 352] | ≥ 5 µM | ≥ 5 µM | ≥ 5 µM | ≥ 5 µM | 1 to 5 µM
11 | O=C(c1ccc2c(-c3nc(NC4CCCNC4)ncc3C(F)(F)F)c[nH]c2c1)N1CCC(O)(C(F)(F)F)C1 (stereo not shown) [Compound 300] | 0.2 to 5 µM | < 0.02 µM | 0.2 to 5 µM | 0.2 to 5 µM | 0.1 to 1 µM
12 | Cc1c(-c2ccc3c(-c4nc(NC5CCCNC5)ncc4C(F)(F)F)c[nH]c3c2)c[nH]c(=O)c1C#N (stereo not shown) [Compound 311] | 0.2 to 5 µM | < 0.02 µM | 0.2 to 5 µM | 0.2 to 5 µM | 1 to 5 µM
13 | CNC(=O)c1cccc2c(-c3nc(NC4CCCNC4)ncc3C(F)(F)F)cn(C)c12 (stereo not shown) [Compound 307] | ≥ 5 µM | ≥ 5 µM | ≥ 5 µM | ≥ 5 µM | 1 to 5 µM
14 | CCCc1cnc(N[C@H]2CCCNC2)nc1-c1c[nH]c2c(S(C)(=O)=O)c(C#N)ccc12 [Compound 367] | ≥ 5 µM | 0.02 to 0.2 µM | ≥ 5 µM | ≥ 5 µM | 1 to 5 µM
15 | O=C(c1ccc2c(-c3nc(NC4CCCNC4)ncc3C(F)(F)F)c[nH]c2c1)N1CC(O)C(F)(F)C1 (stereo not shown) [Compound 349] | 0.2 to 5 µM | < 0.02 µM | 0.2 to 5 µM | 0.2 to 5 µM | 0.1 to 1 µM
16 | Fc1cccc(-c2ccc3c(-c4nc(NC5CCCNC5)ncc4C(F)(F)F)c[nH]c3c2)c1 (stereo not shown) [Compound 345] | ≥ 5 µM | 0.2 to 5 µM | ≥ 5 µM | ≥ 5 µM | 1 to 5 µM
17 | CNC(=O)c1cccc2c(-c3nc(NC4CCCNC4)ncc3C(F)(F)F)cn(COC)c12 (stereo not shown) [Compound 304] | ≥ 5 µM | ≥ 5 µM | ≥ 5 µM | ≥ 5 µM | 1 to 5 µM
